# Data as given in PMC5663395, “Chemical Validation of Methionyl-tRNA Synthetase as a Druggable Target in Leishmania donovani” (ACS Infectious Diseases, 2017).
# Read-outs that look alike come from different tables or passages of the source.
# Legend:
# [1] = tested on: THP-1 lysosomes; experiment: Lysosomotropism assay (LysoTracker Red competition); format: cell-based, human; conditions: PMA-differentiated THP-1 cells, 30 min
# Experimental: calculated, both in terms of pEC50 values. MIC (minimum inhibitory concentration) values are defined as the lowest concentration tested at which maximal inhibition is reached.
# THP-1 cells were differentiated in 96-well plates with PMA as described above. Following differentiation the cells were treated for 30 min with dose-response curves of test compounds in presence of 100 nM LysoTracker Red DND-99 (Thermo Fisher) and 5 µg/ml Hoechst 33342. Next cells were washed 3 times with Hanks Buffered Saline Solution (Gibco) and imaged on a Perkin Elmer Operetta system. An image analysis algorithm to measure mean Lysotracker Red DND-99 intensity per cell was developed in Columbus. Mean Intensity was normalised using a no dye control (100% effect) and DMSO treated wells stained with Lysotracker Red DND-99 (0% effect control). Dose-response curves were fitted for the test compounds using a four-parameter equation (equation 5 above) and constrained to 0 and 100% where necessary.
# To measure the pKa of DDD806905, a fast UV-metric method was performed using a Sirius T3 instrument (Sirius Analytical, U.K.). The calculation of the pKa was determined using the Sirius T3 refine software (Sirius Analytical, U.K.). In brief, the UV-metric pKa method is based on measuring pH during an acid-base titration and monitoring UV absorbance shift. The ionisation curve (Bjerrum curve) was then used to determine the pH where exactly 50 % of neutral and 50 % of ionised species was present. DDD806905 must be fully dissolved throughout the titration and so the titration is set to start at the pH where DDD806905 is in its fully ionised state. The appearance of precipitate was monitored throughout the experiment by a turbidity sensing device. […] The pKas of DDD806905 was determined at the pH where there was maximal change in UV absorbance with respect to pH. […]
# LogD7.4 values were quantified using a Sirius T3 instrument (Sirius Analytical, U.K.). […] The instrument software calculated the pH of each data point using mass and charge balance equations and then fitted this theoretical data to the experimental data. […]
# [2] = tested on: L. donovani intracellular amastigote; experiment: Leishmania intracellular amastigote assay; format: cell-based
# Experimental: (§1) carried out as described above using 5%, 10% and 20% FBS in the media. To examine the effect of the methionine concentration on the potency of DDD806905 parasites were grown in the presence of drug and in the presence (or absence) of 20-fold excess methionine (0.3 g/l). IC50 curve fitting was undertaken in GraFit version 6.0 (Erithacus Software) using a four-parameter logistic dose-response curve (equation 6), with s the slope.
# (§2) Leishmania Axenic Amastigote Assay
# (§3) The Leishmania axenic amastigote assay was performed using the method published in Nühs et al 15.
# (§4) Leishmania Intracellular Amastigote Assay
# (§5) The intramacrophage Leishmania assay was performed using a modified version of the method described in De Rycker et al 16. […]
# (§6) amphotericin B was included. Controls were as follows: columns 11 and 12: DMSO, columns 23 and 24: amphotericin B (final concentration 2 µM). 350 nl of compound was pre-dispensed into 384-well sterile intermediary plates. To the intermediary plates, 35 µl of THP-1 media was added and plates were shaken for >5 min to ensure complete mixing. THP-1 cells (8,000 per well, 50 µl) were plated into black clear-bottom 384-well plates (Corning) in presence of 20 nM phorbol 12-myristate 13- […]
# (§7) in a humidified incubator for 75 h. The cells were then washed with 450 µl sterile phosphate buffered saline (PBS) supplemented with 1 mM CaCl2, 0.5 mM MgCl2, 0.1% (w/v) bovine serum albumin (PBS-A) and amastigotes were added to all wells at a multiplicity of infection of 5 (40,000 amastigotes per well). After 40 min at room temperature, plates were returned to the incubator.
# Amastigotes were incubated in the presence of THP-1 macrophages for 16 h. Any remaining extracellular amastigotes were subsequently removed by washing with PBS-A followed by addition of 25 µl of the compound pre-dilutions using an Ipette-pro pipetting station (FluidX). The final dilution of each compound was 200-fold. […] For each well, i) THP-1 cell count (cytotoxicity readout) and ii) average number of amastigotes per cell (potency readout) were […]
# calculated, both in terms of pEC50 values. […]
# [3] = tested on: L. donovani promastigotes; experiment: Leishmania promastigote viability assay; format: cell-based, Leishmania donovani; conditions: Leishmania donovani
# Experimental: After suitable sample preparation, the
# In vivo Leishmaniasis Animal Model […]
# administered twice daily over the same interval.
# Parasite load is expressed in Leishman-
# Knock-out and overexpressor generation
# Leishmania Promastigote Assay
# Serum shift experiments were […]
# as §1, §2, §3, §4, §5
# amphotericin B was included. Controls were as follows: columns 11 and 12: DMSO, columns 23 and 24: amphotericin B (final concentration 2 µM). 350 nl of compound was pre-dispensed into 384-well sterile intermediary plates. To the intermediary plates, 35 µl of THP-1 media was added and plates were shaken for >5 min to ensure complete mixing. THP-1 cells (8,000 per well, 50 µl) were plated into black clear-bottom 384-well plates (Corning) in presence of 20 nM phorbol 12-myristate 13-
# [4] = tested on: mitochondrial protein synthesis in H9C2 cells; experiment: Mitochondrial protein synthesis assay (COX-1/SDH-A In-Cell ELISA); format: cell-based; conditions: COX-1/SDH-A ratio, average of three experiments
# [5] = THP-1 cytotoxicity readout of intramacrophage assay; format: cell-based; conditions: human, Leishmania infected, PMA-differentiated THP-1 cells; read-out: THP-1 EC50 (toxicity)
# Experimental: as §1, §2, §3, §4, §5
# as §6, with “mixing.” for “mixing. THP-1 cells (8,000 per well, 50 µl) were plated into black clear-bottom 384-well plates (Corning) in presence of 20 nM phorbol 12-myristate 13-”
# Amastigotes were incubated in the presence of THP-1 macrophages for 16 h. […] For each well, i) THP-1 cell count (cytotoxicity readout) and ii) average number of amastigotes per cell (potency readout) were […]
# [6] = tested on: L. donovani axenic amastigotes; experiment: Leishmania axenic amastigote viability assay; format: cell-based, Leishmania donovani; conditions: Leishmania donovani
# Experimental: as §1, §2, §3, §4, §5, §6, §7
# Amastigotes were incubated in the presence of THP-1 macrophages for 16 h. Any remaining extracellular amastigotes were subsequently removed by washing with PBS-A followed by addition of 25 µl of the compound pre-dilutions using an Ipette-pro pipetting station (FluidX). The final dilution of each compound was 200-fold. Plates were incubated for 96 h and then washed (250 µl PBS-A) and fixed (4 % (v/v) formaldehyde-PBS, 30 min, room temperature). After fixation, the wells were washed with 250 µl PBS, stained (10 µg/ml DAPI, 0.4 µg/mL HCS Cellmask Deep Red in PBS + 0.1% (v/v) Triton X-100, 30 min, room temperature) and washed with 250 µl PBS. Finally, PBS + 0.05% (v/v) thimerosal was added to the wells, the plates were sealed and imaged on a high-content microscope (GE IN Cell 2000) using a 10x objective. Image analysis was carried out with GE IN Cell Analyzer 1000 Workstation using the “Multi Target Analysis” module. For each well, i) THP-1 cell count (cytotoxicity readout) and ii) average number of amastigotes per cell (potency readout) were […]
smiles,measurement,setting,value
"Cl.Cl.O=c1nc(NCCCNCc2cc3c(Cl)cc(Cl)cc3[nH]2)[nH]c2ccccc12 [DDD806905, 2-((3-(((4,6-dichloro-1H-indol-2-yl)methyl)amino)propyl)amino)quinazolin-4(1H)-one dihydrochloride]",competition with lysotracker red accumulation in THP-1 lysosomes,[1],did compete with lysotracker red accumulation
same,EC50,"[2]; in THP-1 macrophages, read-out: intracellular amastigote EC50",2900 nM
same,MIC,"[2]; intracellular assay, lowest concentration with maximal inhibition, read-out: MIC (minimum inhibitory concentration)",4.3 µM
same,EC50,"[2]; representative curve, n=8 technical replicates, read-out: intracellular amastigote EC50, representative potency determination",2800 nM
same,EC50,"[3]; 10% serum, read-out: promastigote EC50",270 nM
same,EC50,"[3]; Supplementary Table 1, read-out: Leishmania Promastigote EC50",440 nM
same,EC50,"[3]; absence of excess methionine, read-out: promastigote EC50",460 nM
same,EC50,"[3]; extrapolated to 100% serum, read-out: predicted promastigote EC50",1750 nM
same,EC50,"[3]; extrapolated to no serum, read-out: predicted promastigote EC50",120 nM
same,EC50,"[3]; presence of excess methionine (2 mM), read-out: promastigote EC50",1900 nM
same,IC50,[4]; H9C2 cells,1700 nM
same,IC50,"[4]; Rattus norvegicus, H9c2, H9C2 cells",1680 nM
same,EC50 at 96 h,[5],10000 nM
same,EC50,"[6]; Table 1, read-out: Leishmania Axenic Amastigote EC50",14000 nM
same,EC50,"[6]; media pH 5.6, read-out: axenic amastigote EC50",13700 nM
